The record followed here is patent US10131651B2, “[7,6]-fused bicyclic antidiabetic compounds” (Merck Sharp & Dohme Corp., priority 2014, dated 2018).

The structures appear in SMILES notation.

human GPR40, sequence (O14842 whole entry): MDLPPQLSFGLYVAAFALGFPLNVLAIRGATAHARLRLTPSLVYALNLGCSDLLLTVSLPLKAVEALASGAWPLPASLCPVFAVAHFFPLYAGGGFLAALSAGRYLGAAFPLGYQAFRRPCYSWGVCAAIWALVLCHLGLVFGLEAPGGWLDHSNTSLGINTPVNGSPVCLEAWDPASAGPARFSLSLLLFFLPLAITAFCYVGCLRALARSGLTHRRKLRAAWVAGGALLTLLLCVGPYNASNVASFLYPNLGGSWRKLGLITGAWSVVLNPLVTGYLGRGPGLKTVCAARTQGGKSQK

The target in this experiment is human GPR40 (Homo sapiens (Human), UniProt O14842). The experiment can be described thus: Inositol Phosphate Turnover (IP1) Assay. It counts as cell-based. The settings on record: HEK cells stably expressing human GPR40. On the procedure:
Human and mouse GPR40 stable cell-lines were generated in CHO cells stably expressing NFAT BLA (Beta-lactamase). A human GPR40 stable cell-line was generated in HEK cells stably expressing the acquorin expressing reporter. The expression plasmids were transfected using lipofectamine (Life Technologies) following manufacturer's instructions. Stable cell-lines were generated following drug selection.
The assay is performed in 384-well format. HEK cells stably expressing human GPR40 are plated at 15,000 cells per well in growth medium (DMEM/10% fetal calf serum). Cell plates are then incubated 16 hours at 37 degrees in a 5% CO2 incubator.
Measurement of Inositol Phosphate Turnover (IP1) is performed using the CisBio IP-One kit (Part number 62IPAPEB). After the 16 hour incubation, the cells are washed with HEPES buffer and 10 ul of stimulation buffer (prepared as described in the kit) is added to each well. In a separate plate, compounds are diluted in DMSO (400-fold over the final concentration in the assay well) and 25 nl is acoustically transferred to the appropriate well in the assay cell plate. The plates are then incubated for 60 minutes at 37 degrees. 10 ul of detection buffer (also prepared as described in the IP-One kit) is added to each well and the plates are incubated for 60 minutes in the dark. The plates are then read in a Perkin Elmer EnVision or equivalent reader able to measure FRET. Fluorescent ratio of emission at 665 and 620 nm is then converted to IP1 concentration by back calculating from an IP1 standard curve prepared at the time of the assay.
With `COc1cc(-c2ccc(C3CCCc4ccc([C@H](C5CC5)[C@H](C)C(=O)O)cc4O3)cc2)c(F)cn1` (mixture of isomers) [Example 5, (2S,3R)-3-cyclopropyl-3-((RS)-2-(4-(5-fluoro-2-methoxypyridin-4-yl)phenyl)-2,3,4,5-tetrahydrobenzo[b]oxepin-8-yl)-2-methylpropanoic acid], the EC50 (in general, the midpoint of the concentration-response curve) amounted to 3.1 nM.

In turn, `COc1cc(-c2ccc(C3CCCc4ccc([C@H](C5CC5)[C@H](C)C(=O)O)cc4O3)nc2)c(F)cn1` (mixture of isomers) [Example 7, (2S,3R)-3-cyclopropyl-3-((RS)-2-(5′-fluoro-2′-methoxy-[3,4′-bipyridin]-6-yl)-2,3,4,5-tetrahydrobenzo[b]oxepin-8-yl)-2-methylpropanoic acid] returned an EC50 of 3 nM. The EC50 values of the last two compounds are within 1.5-fold of each other.

As to `COc1cc(-c2ccc(C3CCCc4ccc([C@H](C5CC5)[C@H](C)C(=O)O)cc4O3)c(F)c2)ccn1` (single isomer, unassigned) [Example 1, (2S,3R)-3-cyclopropyl-3-((R or S)-2-(2-fluoro-4-(2-methoxypyridin-4-yl)phenyl)-2,3,4,5-tetrahydrobenzo[b]oxepin-8-yl)-2-methylpropanoic acid], the EC50 came to 3.6 nM.

For `COc1cc(-c2ccc(C3CCCc4ccc([C@H](C5CC5)[C@H](C)C(=O)O)cc4O3)c(F)c2)ccn1` (single isomer, unassigned) [Example 2, (2S,3R)-3-cyclopropyl-3-((R or S)-2-(2-fluoro-4-(2-methoxypyridin-4-yl)phenyl)-2,3,4,5-tetrahydrobenzo[b]oxepin-8-yl)-2-methylpropanoic acid], it took 14 nM to reach a half-maximal effect (EC50).

The compound `C[C@H](C(=O)O)[C@H](c1ccc2c(c1)OC(C1CN(Cc3cc(C(F)(F)F)ccc3C(F)(F)F)C1)CCC2)C1CC1` (single isomer, unassigned) [Example 3, (2S, 3R)-3-((R or S)-2-(1-(2,5-bis (trifluoromethyl)benzyl)azetidin-3-yl)-2,3,4,5-tetrahydrobenzo[b]oxepin-8-yl)-3-cyclopropyl-2-methylpropanoic acid] had an EC50 of 13 nM.

Consider `C[C@H](C(=O)O)[C@H](c1ccc2c(c1)OC(C1CN(Cc3cc(C(F)(F)F)ccc3C(F)(F)F)C1)CCC2)C1CC1` (single isomer, unassigned) [Example 4, (2S,3R)-3-((R or S)-2-(1-(2,5-bis(trifluoromethyl)-benzyl)azetidin-3-yl)-2,3,4,5-tetrahydrobenzo[b]-oxepin-8-yl)-3-cyclopropyl-2-methylpropanoic acid], for which the concentration for a half-maximal effect (EC50) was found to be 27 nM. Against the preceding compound, the EC50 is about 2.1-fold higher.

For the compound `COc1cc(-c2ccc(C3CCCc4ccc([C@H](C5CC5)[C@H](C)C(=O)O)cc4O3)cc2)c(F)cn1` (single isomer, unassigned) [Example 6, (2S,3R)-3-cyclopropyl-3-((R or S)-2-(4-(5-fluoro-2-methoxypyridin-4-yl)phenyl)-2,3,4,5-tetrahydrobenzo[b]oxepin-8-yl)-2-methylpropanoic acid], the response was half-maximal at 5.2 nM (EC50).

For `COc1cc(-c2ccc(C3CCCc4ccc([C@H](C5CC5)[C@H](C)C(=O)O)cc4O3)nc2)c(F)cn1` (single isomer, unassigned) [Example 8, (2S,3R)-3-cyclopropyl-3-((R or S)-2-(5′-fluoro-2′-methoxy-[3,4′-bipyridin]-6-yl)-2,3,4,5-tetrahydrobenzo[b]oxepin-8-yl)-2-methylpropanoic acid], the EC50 is 29 nM. This EC50 is about 5.6-fold higher than that of the compound before.

Consider `COc1ccc(F)c(-c2ccc(C3CCCc4ccc([C@H](C5CCC5)[C@H](C)C(=O)O)cc4O3)cc2)c1` (single isomer, unassigned) [Example 10, Sodium (2S,3R)-3-cyclobutyl-3-((R or S)-2-(2′-fluoro-5′-methoxy-[1,1′-biphenyl]-4-yl)-2,3,4,5-tetrahydrobenzo[b]oxepin-8-yl)-2-methylpropanoate], for which the EC50 was found to be 4.6 nM.

For the compound `COc1ccc(F)c(-c2ccc(C3CCCc4ccc([C@H](C5CCC5)[C@H](C)C(=O)O)cc4O3)cc2)c1` (single isomer, unassigned) [Example 11, Sodium (2S,3R)-3-cyclobutyl-3-((R or S)-2-(2′-fluoro-5′-methoxy-[1,1′-biphenyl]-4-yl)-2,3,4,5-tetrahydrobenzo[b]oxepin-8-yl)-2-methylpropanoate], a half-maximal response (EC50) required 6 nM.

`COc1cc(-c2cnc(C3CCCc4ccc([C@H](C5CC5)[C@H](C)C(=O)O)cc4O3)cn2)c(F)cn1` (single isomer, unassigned) [Example 12] gave an EC50 of 116 nM. Compared with the last compound, the EC50 is about 19-fold higher.

`COc1cc(-c2cnc(C3CCCc4ccc([C@H](C5CC5)[C@H](C)C(=O)O)cc4O3)cn2)c(F)cn1` (single isomer, unassigned) [Example 13] returned an EC50 of 684 nM.
